Test results as given in patent US20220251081A1, “HETEROBICYCLIC INHIBITORS OF MAT2A AND METHODS OF USE FOR TREATING CANCER” (priority 2019, published 2022).

Legend:
[1] = target: T1, MAT2A homodimer (Homo sapiens, UniProt P31153); assay: Biochemical assay: inhibition of recombinant MAT2A homodimer (phosphate release, PiColorLock Gold); conditions: MAT2A IC50 score; read-out: Enzyme Inhibition
T1 construct: inferred from Ni sepharose purification and imidazole elution; made in house; host or cells: Sf9 insect cells, recombinant baculovirus (Bac to Bac, pFASTBAC1 vector)
Protocol: Mat2A protein was expressed by recombinant baculovirus in SF9 infected cells using the Bac to Bac system cloned into the pFASTBAC1 vector (Invitrogen, Carlsbad, Calif.). Recombinant MAT2A was isolated from the cell lysate of 150 g of infected cells using HP Ni sepharose column chromatography. Recombinant MAT2A homodimer was eluted with 250 and 500 mM imidazole, and fractions containing MAT2A were identified by sodium dodecyl sulfate polyacrylamide gel electrophoresis and pooled.
For determination of the inhibitory potency of compounds against the MAT2A homodimer, protein was diluted to 4 μg/mL in assay buffer (50 mM Tris, pH 8.0, 50 mM KCl, 15 mM MgCl2, 0.3 mM EDTA, 0.005% [w/v] bovine serum albumin [BSA]). Test compound was prepared in 100% dimethyl sulfoxide (DMSO) at 50× the desired final concentration. A 1 μL volume of compound dilution was added to 40 μL of enzyme dilution and the mixture was allowed to equilibrate for 60 minutes at 25° C. The enzymatic assay was initiated by the addition of 10 μL of substrate mix (500 μM ATP, pH 7.0, 40 μM L-methionine in 1× assay buffer), and the mixture was incubated for a further 60 minutes at 25° C. The reaction was halted and the liberated phosphate released by the enzyme in stoichiometric amounts by the production of S-adenosyl methionine (SAM) was measured using the PiColorLock Gold kit (Innova Biosciences, UK). Absolute product amounts were determined by comparison to a standard curve of potassium phosphate buffer, pH 8.0.

[2] = system: SAM in HCT116 human colon carcinoma cell line with deleted MTAP gene; assay: Cellular assay of target engagement (SAM): SAM level by LC-MS/MS after 72 hrs; type: cell-based; conditions: HCT-116, IC50 score, read-out: Cell 72 h SAM Inhibition (MTAP −/−)
Protocol: Cellular Assay of Target Engagement (SAM)
Measurement of MAT2A activity in cells was made by direct quantitation of the abundance of the product of its enzymatic activity, SAM. Cancer cells were treated with candidate MAT2A inhibitors for a suitable incubation period, and the cells were then lysed using a reagent which quenched any further enzyme activity. Soluble metabolites including SAM were collected and SAM itself was directly measured from the lysate using quantitative LC-MS/MS.
A typical assay was performed using an HCT116 human colon carcinoma cell line which was genetically engineered to delete the MTAP gene (commercially available from Horizon Discovery). This cell line was utilized because it was determined that loss of the MTAP gene predicts sensitivity to MAT2A inhibitors. Cells were plated in 96-well dishes at appropriate cell density. Following 24 hours, cells were then treated with the candidate MAT2A inhibitor. Prior to addition to cells, the compound was first serially diluted in 100% DMSO, typically as a 3-fold serial dilution starting at 500× top dose with 10 dose points including DMSO only control. Compound was then transferred to a working stock plate in cell culture media by adding 5 μL of compound in DMSO to 495 μL of cell culture media. This working stock was then added to cells via a further 5-fold dilution, by adding 25 μL of working stock to 100 μL of cells in culture media. Following compound addition, cells were incubated at 37° C./5% CO2 for 72 hrs.
To quantitate SAM levels following compound treatment, cells were gently washed once in ammonium carbonate buffer (75 mM at pH 7.4), placed on dry ice, and lysed with metabolite extraction buffer (80% cold methanol and 20% water (v/v) with acetic acid at 1M final concentration with 200 ng/mL deuterated d3-SAM as internal control). Following centrifugation at 4° C. at 3,200 rpm for 30 minutes, the supernatant was collected and stored at −80° C. until analysis by Liquid Chromatography with tandem Mass Spectrometry (LC-MS/MS). LC-MS/MS analysis was performed using an API6500 Mass Spectrometer (Sciex, Framingham, Mass., USA) operating in positive ion spray mode and equipped with a Waters UPLC Acquity (Waters, Milford, Mass., USA) BEH Amide column. Multiple Reaction Monitoring data was acquired for SAM and the d3-SAM standard, using a mass transition pair at m/z 399.2→250.1 and 402.2→250.1, respectively. In a typical LC-MS/MS analysis, the initial flow rate was 0.5 ml/min of 25% mobile phase A (acetonitrile and water at 5:95 (v/v) with 1% formic acid and 10 mM ammonium acetate) and 75% mobile phase B (acetonitrile and water at 95:5 (v/v) with 1% formic acid and 10 mM ammonium acetate), 0.2-0.5 minutes with 75%-35% mobile phase B, 25%-65% mobile phase A, at 0.5 min 65% mobile phase A and 35% mobile phase B, 1.0-1.1 minutes with 35%-75% mobile phase B, 65%-25% mobile phase A, at 1.1 min 25% mobile phase A and 75% mobile phase B with a total run time of 1.5 minutes.

[3] = system: HCT116 MTAP-/-; assay: Inhibition of cellular proliferation, 4 days, Cell Titer Glo, HCT116 MTAP-/-; type: cell-based; conditions: Homo sapiens, HCT-116, 96 h, IC50 score, read-out: 4 Day Relative Growth Inhibition (MTAP −/−)
Protocol: (§1) Assay for Inhibition of Cellular Proliferation
(§2) Test compound impact on cancer cell growth was assessed by treating cancer cells with compound for 4 days and then measuring proliferation using an ATP-based cell proliferation readout (Cell Titer Glo, Promega Corporation).
(§3) In a typical assay an isogenic pair of HCT116 human colon carcinoma cell lines which vary only in MTAP deletion status (HCT116 MTAP +/+ and HCT116 MTAP−/−) were plated in 96-well dishes at appropriate cell density. Following 24 hours, cells were then treated with the candidate MAT2A inhibitor. Prior to addition to cells, the compound was first serially diluted in 100% DMSO, typically as a 3-fold serial dilution starting at 500× top dose with 10 dose points including DMSO only control. Compound was then transferred to a working stock plate in cell culture media by adding 5 μL of compound in DMSO to 495 μL of cell culture media. This working stock was then added to cells via a further 5-fold dilution, by adding 25 μL of working stock to 100 μL of cells in culture media. Following compound addition, cells were incubated at 37° C./5% C02 for 4 days.
(§4) To measure inhibition of cellular proliferation, cells were allowed to equilibrate to room temperature for 30 minutes, and were then treated with 125 μL of Cell Titer Glo reagent. The plate was then covered with aluminum foil and shaken for 15 minutes to ensure complete mixing and full cell lysis. Luminescent signal was then measured using a plate-based luminometer Veritas version 1.9.2 using ATP standard curve to confirm assay reproducibility from run to run. This luminescence measure was converted to a proliferation index by subtracting from each data point the ATP luminescence signal measured from a bank (no cells) well and dividing by the ATP luminescence signal measured in 0.2% DMSO control well adjusted for signal in blank well. Compound activity was then represented as a percentage change in proliferation relative to a within-plate DMSO control against log 10 of compound concentration in molar (M) units.

[4] = system: HCT116 MTAP +/+; assay: Inhibition of cellular proliferation, 4 days, Cell Titer Glo, HCT116 MTAP+/+; type: cell-based; conditions: Homo sapiens, HCT-116, 96 h, IC50 score, read-out: 4 Day Relative Growth Inhibition (MTAP +/+)
Protocol: as §1, §2, §3, §4

T1 sequence (P31153 whole entry): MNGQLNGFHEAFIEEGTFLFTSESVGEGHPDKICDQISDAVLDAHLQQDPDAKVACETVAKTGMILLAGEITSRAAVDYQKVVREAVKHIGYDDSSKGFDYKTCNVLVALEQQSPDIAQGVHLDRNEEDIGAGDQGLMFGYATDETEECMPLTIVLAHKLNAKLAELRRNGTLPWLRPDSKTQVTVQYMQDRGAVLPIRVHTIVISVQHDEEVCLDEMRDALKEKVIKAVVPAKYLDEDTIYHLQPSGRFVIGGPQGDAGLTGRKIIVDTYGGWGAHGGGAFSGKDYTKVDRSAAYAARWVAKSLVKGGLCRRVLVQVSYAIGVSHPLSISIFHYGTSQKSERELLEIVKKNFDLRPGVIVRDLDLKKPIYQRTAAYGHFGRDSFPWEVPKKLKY

SMILES	IC50 [1] [nM]	IC50 [2] [nM]	IC50 [3] [nM]	IC50 [4] [nM]
CCNc1ccc2cc(-c3ccc4nn(C)cc4c3)c(=O)n(-c3ccc(OC(F)F)cc3)c2n1 [Example 309]	< 100	< 100	< 100	< 100
Cn1cc2cc(-c3nc4ccc(OCC(F)(F)F)nc4n(-c4ccc(C5CC5)cc4)c3=O)ccc2n1 [Example 329]	< 100	< 100	< 100	≥ 1000
CCOc1ccc2cc(-c3ccc4nn(C)cc4c3)c(=O)n(-c3ccc(Cl)cc3)c2n1 [Example 138]	< 100	< 100	< 100	100 to 1000
Cn1cc2cc(-c3nc4ccc(OCC(F)(F)F)nc4n(-c4ccc(C5CC5)nc4)c3=O)ccc2n1 [Example 332]	< 100	< 100	< 100	≥ 1000
Cn1cc2cc(-c3cc4ccc(OC5CC5)nc4n(-c4ccc(Cl)cc4)c3=O)ccc2n1 [Example 121]	< 100	< 100	< 100	≥ 1000
CCOc1ccc2cc(-c3ccc4ncccc4c3)c(=O)n(-c3ccc(Cl)cc3)c2n1 [Example 160]	< 100	< 100	100 to 1000	≥ 1000
COc1ccc(-n2c(=O)c(-c3ccc4nnccc4c3)cc3cnc(NCC(F)(F)F)nc32)cc1 [Example 186]	< 100	< 100	100 to 1000	≥ 1000
COc1ccc(-n2c(=O)c(-c3ccc4nn(C)cc4c3)nc3c(N)cc(OCC(F)(F)F)nc32)cc1 [Example 352, 8-amino-4-(4-methoxyphenyl)-2-(2-methyl-2H-indazol-5-yl)-6-(2,2,2-trifluoroethoxy)pyrido[2,3-b]pyrazin-3(4H)-one]	< 100	< 100	< 100	100 to 1000
CCOc1ccc2cc(-c3ccc4nn(C)cc4c3)c(=O)n(-c3ccc(C4CC4)cc3)c2n1 [Example 165]	< 100	< 100	< 100	≥ 1000
CCOc1ccc2cc(-c3ccc4nn(C)cc4c3)c(=O)n(-c3ccc(Br)cc3)c2n1 [Example 317]	< 100	< 100	100 to 1000	100 to 1000
COc1ccc(-c2cc3cnc(NCC(F)(F)F)nc3n(-c3ccc(Br)cc3)c2=O)cc1 [Example 232, 8-(4-bromophenyl)-6-(4-methoxyphenyl)-2-(2,2,2-trifluoroethylamino)pyrido[2,3-d]pyrimidin-7(8H)-one]	< 100	< 100	100 to 1000	≥ 1000

Now from value to molecule:

IC50 [1] [nM]	IC50 [2] [nM]	IC50 [3] [nM]	IC50 [4] [nM]	SMILES
< 100	< 100	< 100	≥ 1000	CCOc1ccc2cc(-c3ccc4nn(C)cc4c3)c(=O)n(-c3ccc(OC(F)(F)F)nc3)c2n1 [Example 152]
< 100	< 100	< 100	≥ 1000	CCOc1cnc2cc(-c3ccc4nn(C)cc4c3)c(=O)n(-c3ccc(Cl)cc3)c2n1 [Example 229, 5-(4-chlorophenyl)-3-ethoxy-7-(2-methyl-2H-indazol-5-yl)pyrido[2,3-b]pyrazin-6(5H)-one]
< 100	< 100	< 100	≥ 1000	Cn1cc2cc(-c3nc4ccc(OCC(F)F)nc4n(-c4ccc(OC(F)F)cc4)c3=O)ccc2n1 [Example 228]
< 100	< 100	< 100	≥ 1000	CCNc1ccc2cc(-c3ccc4nn(C)cc4c3)c(=O)n(-c3ccc(C)nc3)c2n1 [Example 307]
< 100	< 100	< 100	≥ 1000	[2H]C([2H])([2H])Oc1ccc(-n2c(=O)c(-c3ccc4nn(C)cc4c3)cc3ccc(OC(C)C)nc32)cc1 [Example 322]
< 100	< 100	< 100	≥ 1000	Cn1cc2cc(-c3cc4ccc(OCC(F)(F)F)nc4n(-c4ccc(C5CC5)nc4)c3=O)ccc2n1 [Example 166]
< 100	< 100	< 100	≥ 1000	Cn1cc2cc(-c3cc4ccc(OCC(F)(F)F)nc4n(-c4ccc(Br)cc4)c3=O)ccc2n1 [Example 319]
< 100	< 100	100 to 1000	≥ 1000	O=c1c(-c2ccc3nncn3c2)cc2ccc(OCC(F)(F)F)nc2n1-c1ccc(Cl)cc1 [Example 214]
< 100	< 100	< 100	100 to 1000	CCNc1ccc2cc(-c3ccc4nn(C)cc4c3)c(=O)n(-c3ccc(Cl)cc3)c2n1 [Example 310]
< 100	< 100	< 100	≥ 1000	COc1ccc(-n2c(=O)c(-c3ccc4nn(C)cc4c3)nc3ccc(OCC(F)(F)F)nc32)cc1 [Example 327]
< 100	< 100	< 100	100 to 1000	Cn1cc2cc(-c3cc4ccc(OCC(F)F)nc4n(-c4ccc(Cl)cc4)c3=O)ccc2n1 [Example 122]
< 100	< 100	< 100	≥ 1000	COc1ccc(-n2c(=O)c(-c3ccc4nc(N)n(C)c4c3)cc3ccc(OCC(F)(F)F)nc32)cc1 [Example 353, 3-(2-amino-1-methyl-1H-benzo[d]imidazol-6-yl)-1-(4-methoxyphenyl)-7-(2,2,2-trifluoroethoxy)-1,8-naphthyridin-2(1H)-one]
